{
  "source": "patent US20240310364A1",
  "about": "“TUNABLE DYNAMIC AND NON-DYNAMIC HYDROGEL SYSTEMS” (The Johns Hopkins University, priority 2021, published 2024)",
  "key": {"ECFCs [1]": {"system": "ECFCs", "experiment": "Inhibition studies (FI 14, GM6001, blebbistatin) in ECFC-loaded D-hydrogels", "format": "cell-based, human", "set-up": "ECFC aspect ratio (cell spreading) / integrin cluster size and area covered / integrin intensity and number / cellular protrusions and filopodia / sprouting: unit of the concentration uncertain", "conditions": "for vascular bed formation (tube length and volume): 3 days, blebbistatin 60 mM, FI 14 10 mM", "experimental": "For 2D screening of the FI 14 (FI-14, R 95.0%; Sigma-Aldrich), the ECFCs were seeded into a 96-well plate at a cell density of 10000 cells/well in EGM-2 media (Lonza) with 10% FBS (Hyclone). After 1 day of culture, 100 μL of EGM-2 media containing increased concentrations of FI 14 ranging from 0 to 10 μM were added per well and culture for additional 24 hr following by staining for phospho-FAK (Tyr397;ThermoFisher Scientific) as described below. Biological triplicates were tested for each FI 14 concentrations. For inhibition studies, ECFCs were suspended in the hydrogel precursor as above with the addition of 10 mM of FI-14 (Sigma-Aldrich) or GM6001 (1 mg mL^−1; Sigma-Aldrich), 60 mM Blebbistain (Sigma-Aldrich) or vehicle control (DMSO; Sigma-Aldrich). The corresponding culture media also supplied with the corresponding inhibitor/vehicle control at the same concentration. Media was replenish every 24 h till analysis."}, "ECFCs [2]": {"system": "ECFCs", "experiment": "Inhibition studies (FI 14, GM6001, blebbistatin) in ECFC-loaded D-hydrogels", "format": "cell-based, human", "set-up": "unit of the concentration uncertain", "conditions": "0.1 (unit uncertain), versus controls"}, "mUPS spheroids": {"system": "mUPS spheroids", "experiment": "Sarcoma spheroid encapsulation in hydrogels", "format": "cell-based, murine", "conditions": "co-encapsulated in quick-relaxing hydrogels", "experimental": "Spheroids were formed using hanging droplet culture. Briefly, cell monolayers were grown until ˜75% confluent, rinsed with PBS, and passaged with 0.25% Trypsin-EDTA. Hanging droplets of 10,000 cells/20 μL droplet were formed on the inside of the cover of a 60 mm […]. 10 mL of PBS were placed in the bottom of the dish to act as a hydration chamber. Spheroids were cultured as hanging droplets for three days prior to encapsulation in hydrogels. 10 μl of media was added to each droplet on the second day of droplet culture.\nFor spheroid encapsulation, a similar protocol was followed with the adjustments for spheroids. We first collected 12 spheroids in a 1.5 mL Eppendorf tube, centrifuged for 3 minutes, and then pipetted off the media. All subsequent steps were identical to single-cell encapsulation. Cells in hydrogels were cultured under standard conditions and daily media changes of 200 μL.\nLight microscopy images of encapsulated cells were recorded daily at 4×, 10×, and 20× magnifications starting at post-encapsulation (PE) Day 0. For spheroid area quantification, 10× images were grouped by individual spheroid and the area of the spheroid was manually traced in FIJI (NIH) for each day. Days 1-3 were normalized to the size of the spheroid on Day 0. […]"}, "[3]": {"conditions": "60 (unit uncertain), 24 h, ECFCs in D-hydrogels"}},
  "data": [
    {"compound": "Nc1cc(N)c(N)cc1N", "note": "[FI 14]", "values": [
      {"measurement": "ECFC aspect ratio (cell spreading)", "setting": "ECFCs [1]; 10 (unit uncertain), 24 h, versus control D-hydrogels", "result": "cell spreading is reduced"},
      {"measurement": "sprouting", "setting": "ECFCs [1]; 10 (unit uncertain), ECFCs in D-hydrogels", "result": "significant reduction"},
      {"measurement": "phosphorylation of MLC", "setting": "ECFCs [1]; 24 h, ECFCs in D-hydrogels", "result": "reduces the phosphorylation of MLC"},
      {"measurement": "integrin β1 and integrin aV mRNA expression", "setting": "ECFCs [1]; 24 h, versus D-hydrogel controls", "result": "downregulation"},
      {"measurement": "MMP1 and MMP9 mRNA levels", "setting": "ECFCs [1]; 24 h, versus untreated controls", "result": "significant reduction"},
      {"measurement": "MT1-MMP expression at protein and mRNA levels", "setting": "ECFCs [1]; 24 h in culture", "result": "significantly lower expression"},
      {"measurement": "vascular bed formation (tube length and volume)", "setting": "ECFCs [1]; ECFCs in D-hydrogels", "result": "decrease in tube length and volume"}
    ]},
    {"compound": "CNC(=O)[C@H](Cc1c[nH]c2ccccc12)NC(=O)[C@@H](CC(=O)NO)CC(C)C", "note": "[GM6001]", "values": [
      {"measurement": "stiffness of ECFC-loaded D-hydrogels", "setting": "ECFCs [1]; day 3, versus without MMP inhibitor", "result": "significantly stiffer"},
      {"measurement": "tubulogenesis of ECFCs", "setting": "ECFCs [2]", "result": "inhibited"}
    ]},
    {"compound": "Cc1ccc2c(c1)C(=O)C1(O)CCN(c3ccccc3)C1=N2", "note": "(centres unmarked) [blebbistatin]", "values": [
      {"measurement": "cellular protrusions and filopodia", "setting": "ECFCs [1]; [3]", "result": "decrease"},
      {"measurement": "integrin cluster size and area covered", "setting": "ECFCs [1]; [3]", "result": "significant decrease"},
      {"measurement": "integrin intensity and number", "setting": "ECFCs [1]; [3]", "result": "did not affect"},
      {"measurement": "vascular bed formation (tube length and volume)", "setting": "ECFCs [1]; ECFCs in D-hydrogels", "result": "shorter tube length and reduced vessel volume"},
      {"measurement": "spheroid size under contractility inhibition", "setting": "mUPS spheroids", "result": "not sufficient to fully mirror spheroid shrinkage"}
    ]}
  ]
}
